According to patent US7713548B2, “Amorphous solid dispersions” (sanofi-aventis U.S. LLC, priority 2005, dated 2010):

Columns and labels:
[1] = Physical stability of amorphous pure drug substance; type: physicochemical; settings: amorphous forms of the pure drug substance; crystallized over time
[2] = tested on: animal models of rheumatoid arthritis; test: Animal models of rheumatoid arthritis; type: in vivo; settings: by modulating the immune response
[3] = target: peripheral-type benzodiazepine receptors (Homo sapiens, UniProt P30536); settings: described in U.S. Pat. No. 6,262,045 and 6,395,729; cited from earlier work
peripheral-type benzodiazepine receptors, sequence (P30536 whole entry): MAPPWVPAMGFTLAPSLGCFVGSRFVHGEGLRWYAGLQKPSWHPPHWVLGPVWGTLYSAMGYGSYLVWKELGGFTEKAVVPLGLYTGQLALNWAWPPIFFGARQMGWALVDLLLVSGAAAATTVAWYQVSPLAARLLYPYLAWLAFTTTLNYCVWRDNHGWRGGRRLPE

physical stability [1]: limited physical stability
Compound: CN(C)C(=O)Cc1nn(-c2ccccc2)c(=O)c2c1c1ccc(Cl)cc1n2C [7-chloro-N,N,5-trimethyl-4-oxo-3-phenyl-3,5-dihydro-4H-pyridazino[4,5-b]indole-1-acetamide]
pharmacological activity in animal models of rheumatoid arthritis [2]: has shown pharmacological activity | affinity for the peripheral-type benzodiazepine receptors [3]: high affinity
